# Patent US6479435B1, “Diaryl ethers and processes for their preparation and herbicidal and desiccant compositions containing them” (ISK Americas Incorporated, priority 1997, dated 2002)
# Tests used:
# Type in all cases: in vivo
# [1] = test system: large crabgrass (Digitaria sanguinalis, DIGSA); experiment: Pre-emerge greenhouse herbicide test, phytotoxicity rating; settings: 14 days after application, rating scale 0-100
# Method in brief: (§1)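 Seeds sown in sandy loam mix one day before track-sprayer application of compounds in acetone at 125–1000 g ai/ha (187 l/ha), then surface-watered to incorporate and bottom-watered. Visual rating 14 days after application on a 0–100 scale (0 = no damage, 100 = all plants dead).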
# [2] = test system: velvetleaf (Abutilon theophrasti, ABUTH); experiment: as above; settings: 14 days after application, rating scale 0-100
# Method in brief: as §1
# [3] = test system: lambsquarters (Chenopodium album, CHEAL); experiment: as above; settings: 14 days after application, rating scale 0-100
# Method in brief: as §1
# [4] = test system: sicklepod (Cassia obtusifolia, CASOB); experiment: as above; settings: 14 days after application, rating scale 0-100
# Method in brief: as §1
# [5] = test system: green foxtail (Setaria viridis, SETVI); experiment: as above; settings: 14 days after application, rating scale 0-100
# Method in brief: as §1
# [6] = test system: Johnsongrass (Sorghum halepense, SORHA); experiment: as above; settings: 14 days after application, rating scale 0-100
# Method in brief: as §1
# [7] = test system: common ragweed (Ambrosia artemisiifolia L., AMBEL); experiment: as above; settings: 14 days after application, rating scale 0-100
# Method in brief: as §1
# [8] = test system: ivyleaf morningglory (Ipomoea hederacea, IPOHE); experiment: as above; settings: 14 days after application, rating scale 0-100
# Method in brief: as §1
# [9] = test system: barnyardgrass (Echinochloa crusgalli, ECHCG); experiment: as above; settings: 14 days after application, rating scale 0-100
# Method in brief: as §1
# [10] = test system: redroot pigweed (Amaranthus retroflexus, AMARE); experiment: as above; settings: 14 days after application, rating scale 0-100
# Method in brief: as §1
# [11] = test system: common ragweed (Ambrosia artemisiifolia L., AMBEL); experiment: Post-emerge greenhouse herbicide test, phytotoxicity rating; settings: 14 days after application, scale 0-100
# Method in brief: (§2)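 Compounds in acetone with 0.25% v/v non-ionic surfactant were track-sprayed at 187 l/ha over plants at the 2-3 leaf stage, at 63 to 1000 g ai/ha. Pots were bottom-watered. Injury was scored visually 14 days later on a 0-100 scale, where 0 is no damage and 100 is complete plant death.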
# [12] = test system: soybean (Glycine max L., var. Pella 86, SOY); experiment: Pre-emerge greenhouse test, crop damage rating; set-up: key to SOY crop damage rating: 0 = no damage, 100 = complete death of all plants; settings: 14 days after application, rating scale 0-100
# Method in brief: as §1
# [13] = test system: field corn (Zea mays L., var. Dekalb 535, CORN); experiment: Post-emerge greenhouse test, crop damage rating; settings: 14 days after application, scale 0-100
# Method in brief: as §2
# [14] = test system: upland rice (Oryza sp., var.Tebonnet, RICE); experiment: Post-emerge greenhouse test, crop damage rating; settings: 14 days after application, scale 0-100
# Method in brief: as §2
# [15] = test system: soybean (Glycine max L., var. Pella 86, SOY); experiment: Post-emerge greenhouse test, crop damage rating; set-up: key to crop damage rating SOY: 0-100 scale: 0 = no damage, 100 = complete death of all plants; settings: 14 days after application, scale 0-100
# Method in brief: as §2
# [16] = test system: large crabgrass (Digitaria sanguinalis, DIGSA); experiment: Post-emerge greenhouse herbicide test, phytotoxicity rating; settings: 14 days after application, scale 0-100
# Method in brief: as §2
# [17] = test system: velvetleaf (Abutilon theophrasti, ABUTH); experiment: as above; settings: 14 days after application, scale 0-100
# Method in brief: as §2
# [18] = test system: lambsquarters (Chenopodium album, CHEAL); experiment: as above; settings: 14 days after application, scale 0-100
# Method in brief: as §2
# [19] = test system: sicklepod (Cassia obtusifolia, CASOB); experiment: as above; settings: 14 days after application, scale 0-100
# Method in brief: as §2
# [20] = test system: green foxtail (Setaria viridis, SETVI); experiment: as above; settings: 14 days after application, scale 0-100
# Method in brief: as §2
# [21] = test system: Johnsongrass (Sorghum halepense, SORHA); experiment: as above; settings: 14 days after application, scale 0-100
# Method in brief: as §2
# [22] = test system: ivyleaf morningglory (Ipomoea hederacea, IPOHE); experiment: as above; settings: 14 days after application, scale 0-100
# Method in brief: as §2
# [23] = test system: barnyardgrass (Echinochloa crusgalli, ECHCG); experiment: as above; settings: 14 days after application, scale 0-100
# Method in brief: as §2
# [24] = test system: redroot pigweed (Amaranthus retroflexus, AMARE); experiment: as above; settings: 14 days after application, scale 0-100
# Method in brief: as §2
# [25] = test system: field corn (Zea mays L., var. Dekalb 535, CORN); experiment: Pre-emerge greenhouse test, crop damage rating; settings: 14 days after application, rating scale 0-100
# Method in brief: as §1
# [26] = test system: upland rice (Oryza sp., var.Tebonnet, RICE); experiment: Pre-emerge greenhouse test, crop damage rating; settings: 14 days after application, rating scale 0-100
# Method in brief: as §1
smiles,measurement,setting,value
O=c1n(-c2cc(Oc3nccc(Cl)n3)c(Cl)cc2F)c(=S)n2n1CCCC2 [Compound 8-31],DIGSA phytotoxicity rating,[1]; Rate 125 g al/ha,0
same,DIGSA phytotoxicity rating,[1]; Rate 500 g al/ha,70
same,ABUTH phytotoxicity rating,[2]; Rate 125 g al/ha,100
same,ABUTH phytotoxicity rating,[2]; Rate 500 g al/ha,100
same,CHEAL phytotoxicity rating,[3]; Rate 125 g al/ha,90
same,CHEAL phytotoxicity rating,[3]; Rate 500 g al/ha,100
same,CASOB phytotoxicity rating,[4]; Rate 125 g al/ha,30
same,CASOB phytotoxicity rating,[4]; Rate 500 g al/ha,90
same,SETVI phytotoxicity rating,[5]; Rate 125 g al/ha,0
same,SETVI phytotoxicity rating,[5]; Rate 500 g al/ha,90
same,SORHA phytotoxicity rating,[6]; Rate 125 g al/ha,0
same,SORHA phytotoxicity rating,[6]; Rate 500 g al/ha,20
same,AMBEL phytotoxicity rating,[7]; Rate 125 g al/ha,30
same,AMBEL phytotoxicity rating,[7]; Rate 500 g al/ha,0
same,IPOHE phytotoxicity rating,[8]; Rate 125 g al/ha,0
same,IPOHE phytotoxicity rating,[8]; Rate 500 g al/ha,70
same,ECHCG phytotoxicity rating,[9]; Rate 125 g al/ha,0
same,ECHCG phytotoxicity rating,[9]; Rate 500 g al/ha,20
same,AMARE phytotoxicity rating,[10]; Rate 125 g al/ha,100
same,AMARE phytotoxicity rating,[10]; Rate 500 g al/ha,100
same,phytotoxicity rating AMBEL,[11]; rate 63 g ai/ha,50
same,phytotoxicity rating AMBEL,[11]; rate 500 g ai/ha,95
same,SOY crop damage rating,[12]; Rate 125 g al/ha,40
same,SOY crop damage rating,[12]; Rate 500 g al/ha,0
same,crop damage rating CORN,[13]; rate 63 g ai/ha,5
same,crop damage rating CORN,[13]; rate 500 g ai/ha,10
same,crop damage rating RICE,[14]; rate 63 g ai/ha,0
same,crop damage rating RICE,[14]; rate 500 g ai/ha,5
same,crop damage rating SOY,[15]; rate 63 g ai/ha,70
same,crop damage rating SOY,[15]; rate 500 g ai/ha,70
same,phytotoxicity rating DIGSA,[16]; rate 63 g ai/ha,0
same,phytotoxicity rating DIGSA,[16]; rate 500 g ai/ha,50
same,phytotoxicity rating ABUTH,[17]; rate 63 g ai/ha,70
same,phytotoxicity rating ABUTH,[17]; rate 500 g ai/ha,100
same,phytotoxicity rating CHEAL,[18]; rate 63 g ai/ha,90
same,phytotoxicity rating CHEAL,[18]; rate 500 g ai/ha,95
same,phytotoxicity rating CASOB,[19]; rate 63 g ai/ha,0
same,phytotoxicity rating CASOB,[19]; rate 500 g ai/ha,80
same,phytotoxicity rating SETVI,[20]; rate 63 g ai/ha,10
same,phytotoxicity rating SETVI,[20]; rate 500 g ai/ha,40
same,phytotoxicity rating SORHA,[21]; rate 63 g ai/ha,0
same,phytotoxicity rating SORHA,[21]; rate 500 g ai/ha,30
same,phytotoxicity rating IPOHE,[22]; rate 63 g ai/ha,80
same,phytotoxicity rating IPOHE,[22]; rate 500 g ai/ha,80
same,phytotoxicity rating ECHCG,[23]; rate 63 g ai/ha,0
same,phytotoxicity rating ECHCG,[23]; rate 500 g ai/ha,20
same,phytotoxicity rating AMARE,[24]; rate 63 g ai/ha,70
same,phytotoxicity rating AMARE,[24]; rate 500 g ai/ha,100
same,CORN crop damage rating,[25]; Rate 125 g al/ha,0
same,CORN crop damage rating,[25]; Rate 500 g al/ha,0
same,RICE crop damage rating,[26]; Rate 125 g al/ha,0
same,RICE crop damage rating,[26]; Rate 500 g al/ha,10
COc1cc(Oc2cc(-n3c(=O)n4n(c3=S)CCCC4)c(F)cc2Cl)nc(OC)n1 [Compound 8-32],DIGSA phytotoxicity rating,[1]; Rate 125 g al/ha,20
same,DIGSA phytotoxicity rating,[1]; Rate 500 g al/ha,90
same,ABUTH phytotoxicity rating,[2]; Rate 125 g al/ha,95
same,ABUTH phytotoxicity rating,[2]; Rate 500 g al/ha,100
same,CHEAL phytotoxicity rating,[3]; Rate 125 g al/ha,90
same,CHEAL phytotoxicity rating,[3]; Rate 500 g al/ha,100
same,CASOB phytotoxicity rating,[4]; Rate 125 g al/ha,30
same,CASOB phytotoxicity rating,[4]; Rate 500 g al/ha,80
same,SETVI phytotoxicity rating,[5]; Rate 125 g al/ha,10
same,SETVI phytotoxicity rating,[5]; Rate 500 g al/ha,100
same,SORHA phytotoxicity rating,[6]; Rate 125 g al/ha,10
same,SORHA phytotoxicity rating,[6]; Rate 500 g al/ha,30
same,AMBEL phytotoxicity rating,[7]; Rate 125 g al/ha,0
same,AMBEL phytotoxicity rating,[7]; Rate 500 g al/ha,50
same,IPOHE phytotoxicity rating,[8]; Rate 125 g al/ha,40
same,IPOHE phytotoxicity rating,[8]; Rate 500 g al/ha,90
same,ECHCG phytotoxicity rating,[9]; Rate 125 g al/ha,0
same,ECHCG phytotoxicity rating,[9]; Rate 500 g al/ha,20
same,AMARE phytotoxicity rating,[10]; Rate 125 g al/ha,50
same,AMARE phytotoxicity rating,[10]; Rate 500 g al/ha,100
same,phytotoxicity rating AMBEL,[11]; rate 63 g ai/ha,50
same,phytotoxicity rating AMBEL,[11]; rate 500 g ai/ha,90
same,SOY crop damage rating,[12]; Rate 125 g al/ha,0
same,SOY crop damage rating,[12]; Rate 500 g al/ha,0
same,crop damage rating CORN,[13]; rate 63 g ai/ha,5
same,crop damage rating CORN,[13]; rate 500 g ai/ha,5
same,crop damage rating RICE,[14]; rate 63 g ai/ha,0
same,crop damage rating RICE,[14]; rate 500 g ai/ha,10
same,crop damage rating SOY,[15]; rate 63 g ai/ha,30
same,crop damage rating SOY,[15]; rate 500 g ai/ha,80
same,phytotoxicity rating DIGSA,[16]; rate 63 g ai/ha,0
same,phytotoxicity rating DIGSA,[16]; rate 500 g ai/ha,0
same,phytotoxicity rating ABUTH,[17]; rate 63 g ai/ha,100
same,phytotoxicity rating ABUTH,[17]; rate 500 g ai/ha,100
same,phytotoxicity rating CHEAL,[18]; rate 63 g ai/ha,95
same,phytotoxicity rating CHEAL,[18]; rate 500 g ai/ha,100
same,phytotoxicity rating CASOB,[19]; rate 63 g ai/ha,10
same,phytotoxicity rating CASOB,[19]; rate 500 g ai/ha,100
same,phytotoxicity rating SETVI,[20]; rate 63 g ai/ha,10
same,phytotoxicity rating SETVI,[20]; rate 500 g ai/ha,40
same,phytotoxicity rating SORHA,[21]; rate 63 g ai/ha,0
same,phytotoxicity rating SORHA,[21]; rate 500 g ai/ha,20
same,phytotoxicity rating IPOHE,[22]; rate 63 g ai/ha,100
same,phytotoxicity rating IPOHE,[22]; rate 500 g ai/ha,100
same,phytotoxicity rating ECHCG,[23]; rate 63 g ai/ha,0
same,phytotoxicity rating ECHCG,[23]; rate 500 g ai/ha,10
same,phytotoxicity rating AMARE,[24]; rate 63 g ai/ha,90
same,phytotoxicity rating AMARE,[24]; rate 500 g ai/ha,100
same,CORN crop damage rating,[25]; Rate 125 g al/ha,0
same,CORN crop damage rating,[25]; Rate 500 g al/ha,10
same,RICE crop damage rating,[26]; Rate 125 g al/ha,0
same,RICE crop damage rating,[26]; Rate 500 g al/ha,40
